“Also recorded” adds a separate entry of the source.
How the values were obtained:
[1] = system: SH-SY5Y cells; assay: AK (adenylate kinase) release ToxiLight cytotoxicity assay; conditions: for AK: PKIS2 primary screening
Experimental: Total cell lysis with 5 µL 5% Triton-X 100 (Sigma-Aldrich, T8787) is used as a positive control for the assay and toxicity is expressed as a percentage of luminescence under DMSO conditions.

[2] = system: endogenous TFEB; assay: TFEB nuclear translocation, immunocytochemistry high-content imaging; assay type: cell-based; conditions: for TFEB %: PKIS2 primary screening
[3] = system: SH-SY5Y cells; conditions: for DQ Intensity / DQ Spot: PKIS2 primary screening; for DQ Intensity: DQ Red BSA intensity; for DQ Spot: DQ Red BSA spot count
Text: The PKIS2 Library was supplied by The Structural Genomics Consortium at the University of North Carolina at Chapel Hill.

[4] = system: SH-SY5Y cells; assay: Chemotype enrichment analysis of PKIS2 primary screen hit categories; conditions: PKIS2 primary screening, hit category
[5] = system: SH-SY5Y cells; assay: Nuclear count from microscopy images (cellular growth and toxicity); conditions: PKIS2 primary screening
[6] = system: endogenous TFE3; assay: TFE3 nuclear translocation, immunocytochemistry high-content imaging; assay type: cell-based; conditions: for TFE3 %: PKIS2 primary screening

Structure (SMILES) | AK [1] | TFEB % [2] | DQ Intensity [3] | DQ Spot [3] | Outcome [4] | Nuclear Count [5] | TFE3 % [6] | Cellular toxicity (AK release and nuclear count, in words) ([1]; SH-SY5Y, 24 h treatment) | TFEB translocation (in words) ([2]; SH-SY5Y, 24 h treatment) | DQ Red BSA fluorescence intensity (in words) ([3]; SH-SY5Y, 24 h treatment) | DQ Red BSA spot count / active lysosome count (in words) ([3]; SH-SY5Y, 24 h treatment) | TFE3 translocation (in words) ([6]; SH-SY5Y, 24 h treatment)
Fc1cc(Cl)ccc1Nc1ccnc2cc(I)ccc12 [UNC10225189A] | 112.41 | 3.86% | 39.14 | 61.91 | LYSO TOXIC | 145.49 | 9.39% |  |  |  |  | 
c1ccc(Oc2ccc(Nc3ccnc4ccc(-c5ccccn5)cc34)cc2)cc1 [UNC10225215A] | 106.19 | 9.01% | 94.87 | 78.82 | LYSO TOXIC | 111.99 | 13.98% |  |  |  |  | 
CN1C(=O)C(Nc2ccccc2)=C(c2ccccc2)C1=O [UNC10225242A] | 287.85 | 6.14% | 102.22 | 99.91 | TOXIC | 117.96 | 13.56% |  |  |  |  | 
Cl.Cl.NC[C@H](CC1CCCCC1)NC(=O)c1cc(Br)c(-c2ccnc3[nH]ccc23)s1 [UNC10225276A] | 108.11 | 12.93% | 221.52 | 71.17 | TFEB/3 + DQ Int | 101.96 | 33.43% |  |  |  |  | 
Fc1cc(Cl)ccc1Nc1ccnc2cc(-c3ccc(CN4CCSCC4)o3)ccc12 [UNC10225290A] | 104.94 | 9.12% | 59.38 | 53.95 | LYSO TOXIC | 127.72 | 15.63% |  |  |  |  | 
Nc1nc(-c2cccnc2)c(-c2ccnc3ccccc23)s1 [UNC10225309A] | 67.30 | 13.96% | 115.27 | 134.42 | DQ and TFEB | 71.32 | 14.98% |  |  |  |  | 
Cc1cccc2c(-c3ccncc3)c(-c3ccc(F)cc3)nn12.Cl [UNC10225316A] | 93.04 | 5.61% | 71.88 | 91.98 | TFE3 | 85.13 | 21.03% |  |  |  |  | 
Fc1cccc(COc2ccc(Nc3ncnc4nn5ccccc5c34)cc2Cl)c1 [UNC10225319A] | 110.07 | 3.13% | 134.45 | 139.92 | TFE3 + DQ | 77.83 | 21.26% |  |  |  |  | 
COc1ccc(-c2nc3n(c2-c2ccncc2)CCC3)cc1 [UNC10225334A] | 77.50 | 5.64% | 120.06 | 119.57 | DQ Only | 82.13 | 11.25% |  |  |  |  | 
c1ccc(-c2ccnc3[nH]ccc23)cc1 [UNC10225337A] | 289.20 | 6.67% | 103.32 | 96.87 | TOXIC | 120.86 | 8.32% |  |  |  |  | 
Cl.c1ccc(-c2ccc3c(Nc4ccc5[nH]ccc5c4)ccnc3c2)nc1 [UNC10225345A] | 157.00 | 8.10% | 44.66 | 42.49 | TOXIC | 89.15 | 38.32% |  |  |  |  | 
CC(C)(C)c1ccc2nccc(Nc3cccc(O)c3)c2c1 [UNC10225361A] | 101.00 | 10.76% | 97.55 | 54.23 | LYSO TOXIC | 71.73 | 26.88% |  |  |  |  | 
CC(=O)Nc1ccc(COc2ccc(Nc3ccnc4cc(-c5ccccn5)ccc34)cc2)cc1.Cl [UNC10225390A] | 71.40 | 19.19% | 42.39 | 42.67 | LYSO TOXIC | 89.28 | 50.24% |  |  |  |  | 
CN(C)CCOc1ccc(-c2cc(-c3ccc(Cl)c(O)c3)c(-c3ccncc3)[nH]2)cc1.Cl.Cl [UNC10225395A] | 117.96 | 15.65% | 71.39 | 40.46 | LYSO TOXIC | 86.70 | 46.41% |  |  |  |  | 
COc1ccc(C[C@@H](CN)NC(=O)c2cc(Br)c(-c3ccnc4[nH]ccc34)s2)cc1.Cl.Cl [UNC10225412A, reference compound] | 302.26 | 17.53% | 276.55 | 119.63 | TOXIC | 99.32 | 22.21% | no toxicity; also recorded: without cellular toxicity | translocation of TFEB and TFE3 | increase in DQ Red BSA fluorescence intensity | small reduction in puncta count | strong TFE3 translocation; also recorded: translocation of TFEB and TFE3

Source: article PMC9851200, “Multiparameter phenotypic screening for endogenous TFEB and TFE3 translocation identifies novel chemical series modulating lysosome function” (Autophagy, 2022)
